US5786447A, “Opioid peptide analogs” (Astra AB, priority 1994, dated 1998)
Positions of bridges follow the written chain, without caps; N, C: chain ends. Non-standard residues stand in square brackets, D forms with d. Residues, ends and D or L forms follow the SMILES beside them. 2Nal = N[C@@H](Cc1ccc2ccccc2c1)C(=O)O; Dmt = Cc1cc(O)cc(C)c1C[C@H](N)C(=O)O; dOrn = NCCC[C@@H](N)C(=O)O; NMeAib = CNC(C)(C)C(=O)O; Sar = CNCC(=O)O

Key:
δ opioid receptor = target: T1, δ opioid receptor (Rattus norvegicus, UniProt P33533); assay: δ opioid receptor binding, displacement of δ-selective radioligand from rat brain membranes; settings: for Ki^δ/Ki^μ (selectivity for μ versus δ receptors): ratio of binding constants; for Ki: δ-selective radioligand 1.0 nM, Cheng-Prusoff, means of three determinations ± SEM
T1 construct: from tissue; host or cells: rat brain membranes (cerebellum removed), Sprague-Dawley
T1 sequence (P33533 whole entry): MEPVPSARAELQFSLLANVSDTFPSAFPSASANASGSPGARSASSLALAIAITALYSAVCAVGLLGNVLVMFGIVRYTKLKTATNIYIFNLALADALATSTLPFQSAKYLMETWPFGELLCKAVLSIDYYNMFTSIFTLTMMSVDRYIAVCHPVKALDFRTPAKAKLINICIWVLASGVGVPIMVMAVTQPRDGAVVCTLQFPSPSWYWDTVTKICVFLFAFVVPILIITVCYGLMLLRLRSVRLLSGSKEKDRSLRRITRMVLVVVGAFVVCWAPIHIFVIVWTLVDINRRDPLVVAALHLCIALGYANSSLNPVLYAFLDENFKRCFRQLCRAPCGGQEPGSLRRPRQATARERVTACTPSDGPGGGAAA
Description: (§1) In the case of κ-ligands guinea pig brain homogenates were used, since the relative proportion of κ-binding sites is higher in guinea pig brain than in rat brain. The experimental procedure being used in our laboratory represents a modified version of the binding assay described by Paternak et al. (Mol. Pharmacol. 11 340-351, (1975)). Male Sprague-Dawley rats (300-350 g) from the Canadian Breeding Laboratories were decapitated and after removal of the cerebellum the brains were homogenized in 30 volumes of ice-cold standard buffer (50 mM Tris-HCl, pH 7.7). After centrifugation at 30,000×g for 30 min at 4° C. the membranes were reconstituted in the original volume of standard buffer and incubated for 30 min at 37° C. (to release bound endogenous ligands). […] The incubation was terminated by filtration through Whatman GF/B filters under vacuum at 4° C. Following two washings with 5 ml portions of ice-cold standard buffer the filters were transferred to scintillation vials and treated with 1 ml Protosol (New England Nuclear) for 30 min prior to the addition of 0.5 ml acetic acid and 10 ml Aquasol (New England Nuclear). After shaking for 30 min the vials were counted at an efficiency of 40-45%. All experiments were performed in duplicates and repeated at least three times. Specific binding of each of the three radioglands was defmed by performing incubations in the presence of cold DAMGO, DSLET and U69,563, respectively, at a concentration of 1 micromolar. Values of half-maximal inhibition (IC50) of specific binding were obtained graphically from semilogarithmic plots. From the measured IC50-values, binding inhibition constants (Ki) were then calculated based on Cheng and Prussoff's equation (Biochem. Pharmacol. 22, 3099-3102 (1973)). Ratios of the Ki -values in the μ-, δ- and κ-representative bindning assays are a measure of the receptor selectivity of the compound under investigation (e.g. Ki^δ/ Ki^μ indicated the selectivity for μ-receptors versus δ-receptors).

δ opioid receptors = target: T2, δ opioid receptors (Mus musculus, UniProt P32300); assay: MVD assay: inhibition of electrically evoked contractions of the mouse vas deferens (δ antagonist Ke); type: cell-based; settings: means of 3-8 determinations ± SEM; for Ke in the MVD assay, antagonist potency against DPDPE: δ agonist DPDPE; for Ke in the MVD assay, antagonist potency against [D-Ala2]deltorphin I: δ agonist [D-Ala2]deltorphin I; for Ke in the MVD assay, antagonist potency against [Leu5]enkephalin: δ agonist [Leu5]enkephalin
T2 construct: Bioassays Using Isolated Organ Preparations; from tissue; host or cells: isolated mouse vas deferens
T2 sequence (P32300 whole entry): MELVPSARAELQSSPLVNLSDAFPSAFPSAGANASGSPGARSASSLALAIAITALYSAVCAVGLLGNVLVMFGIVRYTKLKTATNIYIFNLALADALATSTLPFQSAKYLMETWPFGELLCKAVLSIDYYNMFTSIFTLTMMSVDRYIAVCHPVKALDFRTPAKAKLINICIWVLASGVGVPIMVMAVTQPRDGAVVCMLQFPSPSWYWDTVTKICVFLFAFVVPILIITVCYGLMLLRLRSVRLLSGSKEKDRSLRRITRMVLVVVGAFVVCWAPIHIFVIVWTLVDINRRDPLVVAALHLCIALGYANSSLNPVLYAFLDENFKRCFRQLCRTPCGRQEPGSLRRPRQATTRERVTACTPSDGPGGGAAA
Protocol: (§2) a) Bioassays based on inhibition of electrically evoked contractions of the mouse vas deferens (MVD) and of the guinea pig ileum (GPI). In the GPI assay the opioid effect is primarily mediated by μ opioid receptors, whereas in the MVD assay the inhibition of the contractions is mostly due to interaction with δ opioid receptors.
(§3) The GPI and MVD bioassays were carried out as reported in P. W. Schiller et al., Biochem. Biophys. Res. Commun 85, 1332-1338 (1978) and J. Di Maio et al., J. Med. Chem. 25, 1432-1438 (1982). A log dose-response curve was determined with [Leu^5 ] enkephalin as standard for each ileum and vas preparation, and IC50 values of the compounds being tested were normalized according to A. A. Waterfield et al., Eur. J. Pharmacol. 58, 11-18 (1979). Ke values for the cyclic β-casomorphin analogs with mixed μ agonist/δ antagonist properties (δ antagonist effect) were determined from the ratio of IC50 values (DR) obtained in the presence and absence of a fixed antagonist concentration (a) (Ke =a/(DR-1)) H. W. Kosterlitz & A. J. Watt, Br. J. Pharmacol. 33, 266-276 (1968). These determinations were made with the MVD assay, using three different δ-selective agonists ([Leu^5 ]enkephalin, DPDPE and [D-Ala^2]deltorphin I].

μ opioid receptor = target: T3, μ opioid receptor (Rattus norvegicus, UniProt P33535); assay: μ opioid receptor binding, displacement of [3H]DAMGO from rat brain membranes; settings: [3H]DAMGO 0.7 nM, Cheng-Prusoff, means of three determinations ± SEM
T3 construct: from tissue; host or cells: rat brain membranes (cerebellum removed), Sprague-Dawley
T3 sequence (P33535 whole entry): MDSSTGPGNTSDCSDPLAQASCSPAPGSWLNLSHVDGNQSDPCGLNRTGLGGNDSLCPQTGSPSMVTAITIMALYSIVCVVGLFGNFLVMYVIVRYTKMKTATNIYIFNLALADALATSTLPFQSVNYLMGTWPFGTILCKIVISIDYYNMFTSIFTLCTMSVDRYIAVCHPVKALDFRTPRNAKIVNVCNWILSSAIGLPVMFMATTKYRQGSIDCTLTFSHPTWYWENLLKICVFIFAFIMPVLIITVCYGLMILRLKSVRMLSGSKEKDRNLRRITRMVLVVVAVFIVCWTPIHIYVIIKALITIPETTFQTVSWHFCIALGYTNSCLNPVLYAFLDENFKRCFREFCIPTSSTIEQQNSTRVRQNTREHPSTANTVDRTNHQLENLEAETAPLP
Description: as §1

μ opioid receptors = μ opioid receptors (Cavia porcellus, UniProt P97266); assay: GPI assay: inhibition of electrically evoked contractions of the guinea pig ileum; type: cell-based; settings: means of 3-6 determinations ± SEM, normalized to [Leu5]enkephalin standard, read-out: IC50 in the GPI assay (agonist potency)
Chain of μ opioid receptors (P97266 whole entry, looked up): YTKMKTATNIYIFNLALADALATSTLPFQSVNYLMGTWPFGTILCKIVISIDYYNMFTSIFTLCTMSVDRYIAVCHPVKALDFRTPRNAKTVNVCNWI
Protocol: as §2, §3

Compound | Ki^δ/Ki^μ (selectivity for μ versus δ receptors) (δ opioid receptor) | Ki (δ opioid receptor) [nM] | Ke in the MVD assay, antagonist potency against DPDPE (δ opioid receptors) | Ke in the MVD assay, antagonist potency against [D-Ala2]deltorphin I (δ opioid receptors) | Ke in the MVD assay, antagonist potency against [Leu5]enkephalin (δ opioid receptors) | Ki (μ opioid receptor) [nM] | IC50 (μ opioid receptors) [nM]
CN[C@@H](Cc1ccc(O)cc1)C(=O)N[C@@H]1CCCNC(=O)CNC(=O)[C@H]2CCCN2C(=O)[C@H](Cc2ccc3ccccc3c2)NC1=O [Example 1, Tyr(NMe)-c[-D-Orn-2-Nal-D-Pro-Gly-]] (HELM PEPTIDE1{[meY].[O=C([C@@H](CCCN[*:3])N[*:1])[*:2]].[O=C([C@H](Cc1ccc2ccccc2c1)N[*:1])[*:2]].[dP].G}$PEPTIDE1,PEPTIDE1,2:R3-5:R2$$$V2.0) | 0.765 | 1.3 ± 0.19 | 45.9 ± 2.8 | 38.8 ± 5.9 | 30.8 ± 1.5 | 1.7 ± 0.15 | 92.5
CN1CC(=O)NCCC[C@@H](NC(=O)[C@@H](N)Cc2ccc(O)cc2)C(=O)N[C@@H](Cc2ccc3ccccc3c2)C(=O)N2CCC[C@@H]2C1=O [Example 2, H-Tyr-c[-D-Orn-2-Nal-D-Pro-Sar-]] (HELM PEPTIDE1{Y.[O=C([C@@H](CCCN[*:3])N[*:1])[*:2]].[O=C([C@H](Cc1ccc2ccccc2c1)N[*:1])[*:2]].[dP].[Sar]}$PEPTIDE1,PEPTIDE1,2:R3-5:R2$$$V2.0) | 0.163 | 2.41 ± 0.34 | 11.2 ± 2.1 | 7.81 ± 1.90 | 17.0 ± 3.60 | 14.8 ± 0.7 | 159
Cc1cc(O)cc(C)c1C[C@H](N)C(=O)N[C@@H]1CCCNC(=O)CNC(=O)[C@H]2CCCN2C(=O)[C@H](Cc2ccc3ccccc3c2)NC1=O [Example 3, H-Dmt-c[-D-Orn-2-Nal-D-Pro-Gly-]] (H-[Dmt][dOrn][2Nal][dP]G; lactam 2-C) | 0.993 | 0.457 ± 0.022 | 2.13 ± 0.51 | 3.37 ± 0.59 | 3.74 ± 1.00 | 0.46 ± 0.022 | 7.88
Cc1cc(O)cc(C)c1C[C@H](N)C(=O)N[C@@H]1CCCNC(=O)CN(C)C(=O)[C@H]2CCCN2C(=O)[C@H](Cc2ccc3ccccc3c2)NC1=O [Example 4, H-Dmt-c[-D-Orn-2-Nal-D-Pro-Sar-]] (H-[Dmt][dOrn][2Nal][dP][Sar]; lactam 2-C) |  |  | 16.4 |  |  |  | 14.5
C[C@H]1NC(=O)[C@H]2CCCN2C(=O)[C@H](Cc2ccc3ccccc3c2)NC(=O)[C@H](NC(=O)[C@@H](N)Cc2ccc(O)cc2)CCCNC1=O [Example 5, H-Tyr-c[-D-Orn-2-Nal-D-Pro-D-Ala-]] (HELM PEPTIDE1{Y.[O=C([C@@H](CCCN[*:3])N[*:1])[*:2]].[O=C([C@H](Cc1ccc2ccccc2c1)N[*:1])[*:2]].[dP].[dA]}$PEPTIDE1,PEPTIDE1,2:R3-5:R2$$$V2.0) | 0.0105 | 0.755 ± 0.125 | 5.35 ± 0.42 | 5.99 ± 1.30 |  | 72 ± 22 | 600
CC1(C)NC(=O)[C@H]2CCCN2C(=O)[C@H](Cc2ccc3ccccc3c2)NC(=O)[C@H](NC(=O)[C@@H](N)Cc2ccc(O)cc2)CCCNC1=O [Example 6, H-Tyr-c[-D-Orn-2-Nal-D-Pro-Aib-]] (HELM PEPTIDE1{Y.[O=C([C@@H](CCCN[*:3])N[*:1])[*:2]].[O=C([C@H](Cc1ccc2ccccc2c1)N[*:1])[*:2]].[dP].[Aib]}$PEPTIDE1,PEPTIDE1,2:R3-5:R2$$$V2.0) |  |  | 31.6 ± 2.9 | 55.8 ± 3.8 |  |  | 451
CN1C(=O)[C@H]2CCCN2C(=O)[C@H](Cc2ccc3ccccc3c2)NC(=O)[C@H](NC(=O)[C@@H](N)Cc2ccc(O)cc2)CCCNC(=O)C1(C)C [Example 7, H-Tyr-c[-D-Orn-2-Nal-D-Pro-MeAib-]] (H-Y[dOrn][2Nal][dP][NMeAib]; lactam 2-C) | 0.366 | 10.7 ± 5.5 | 370 ± 48 | 480 ± 84 |  | 29.2 ± 5.2 | 228
CC(C)[C@H]1NC(=O)[C@H]2CCCN2C(=O)[C@H](Cc2ccc3ccccc3c2)NC(=O)[C@H](NC(=O)[C@@H](N)Cc2ccc(O)cc2)CCCNC1=O [Example 8, H-Tyr-c[-D-Orn-2-Nal-D-Pro-D-Val-]] (HELM PEPTIDE1{Y.[O=C([C@@H](CCCN[*:3])N[*:1])[*:2]].[O=C([C@H](Cc1ccc2ccccc2c1)N[*:1])[*:2]].[dP].[dV]}$PEPTIDE1,PEPTIDE1,2:R3-5:R2$$$V2.0) |  |  | 20.9 ± 1.5 | 26.1 ± 2.8 |  |  | 536
CC[C@@H](C)[C@H]1NC(=O)[C@H]2CCCN2C(=O)[C@H](Cc2ccc3ccccc3c2)NC(=O)[C@H](NC(=O)[C@@H](N)Cc2ccc(O)cc2)CCCNC1=O [Example 9, H-Tyr-c[-D-Orn-2-Nal-D-Pro-D-Ile-]] (HELM PEPTIDE1{Y.[O=C([C@@H](CCCN[*:3])N[*:1])[*:2]].[O=C([C@H](Cc1ccc2ccccc2c1)N[*:1])[*:2]].[dP].[dI]}$PEPTIDE1,PEPTIDE1,2:R3-5:R2$$$V2.0) |  |  | 4.88 ± 0.94 | 7.63 ± 1.48 |  |  | 815
Cc1cc(O)cc(C)c1C[C@H](N)C(=O)N[C@@H]1CCCNC(=O)[C@@H](C)NC(=O)[C@H]2CCCN2C(=O)[C@H](Cc2ccc3ccccc3c2)NC1=O [Example 10, H-Dmt-c[-D-Orn-2-Nal-D-Pro-D-Ala-]] (H-[Dmt][dOrn][2Nal][dP][dA]; lactam 2-C) |  |  | 0.577 ± 0.022 | 0.319 ± 0.091 |  |  | 10.4
N[C@@H](Cc1ccc(O)cc1)C(=O)N[C@@H]1CCCCNC(=O)CNC(=O)[C@H]2CCCN2C(=O)[C@H](Cc2ccc3ccccc3c2)NC1=O [H-Tyr-c[-D-Lys-2-Nal-D-Pro-Gly-], reference compound] (HELM PEPTIDE1{Y.[dK].[O=C([C@H](Cc1ccc2ccccc2c1)N[*:1])[*:2]].[dP].G}$PEPTIDE1,PEPTIDE1,2:R3-5:R2$$$V2.0) | 3.66 | 62.6 ± 13.2 | 305 ± 52 | 305 ± 52 | 603 ± 174 | 17.1 ± 2.6 | 609
N[C@@H](Cc1ccc(O)cc1)C(=O)N[C@@H]1CCCNC(=O)CNC(=O)[C@H]2CCCN2C(=O)[C@H](Cc2ccc3ccccc3c2)NC1=O [H-Tyr-c[-D-Orn-2-Nal-D-Pro-Gly-], reference compound] (HELM PEPTIDE1{Y.[O=C([C@@H](CCCN[*:3])N[*:1])[*:2]].[O=C([C@H](Cc1ccc2ccccc2c1)N[*:1])[*:2]].[dP].G}$PEPTIDE1,PEPTIDE1,2:R3-5:R2$$$V2.0) | 2.92 | 17.2 ± 4.9 | 233 ± 28 | 202 ± 24 | 268 ± 22 | 5.89 ± 1.6 | 384
